Experimental data published in ChEMBL document CHEMBL1909294, “Translating clinical findings into knowledge in drug safety evaluation--drug induced liver injury prediction system (DILIps)” (PLoS Comput Biol, 2011).

Assays:
Hepatotoxicity [1] = test system: Hepatotoxicity;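 on HepSE bilirubinemia: bilirubinemia hepatic side effect score drawn from the DILIps training data, a prediction system for drug-induced liver injury; call rule not given here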;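 on HepSE cholecystitis: Cholecystitis-related hepatic side effect score drawn from the DILIps (drug-induced liver injury prediction) training data set; call rule not given here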;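 on HepSE cholelithiasis: hepatic side effect score for cholelithiasis, drawn from the DILIps training data for predicting drug-induced liver injury; call rule not given here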;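 on HepSE cirrhosis: cirrhosis hepatic side effect score taken from the DILIps (drug-induced liver injury prediction) training set; call rule not given here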;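 on HepSE elevated liver function tests: hepatic side effect score for raised liver function tests, as recorded in the DILIps training set used for predicting drug-induced liver injury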; on HepSE hepatic failure: call rule not given here;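 on HepSE hepatomegaly: hepatic side effect score for hepatomegaly, taken from the training set of the DILIps drug-induced liver injury prediction system; call rule not given here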
Hepatotoxicity [2] = test system: Hepatotoxicity; remark: listed apart in the source;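 on HepSE bilirubinemia: bilirubinemia hepatic side effect score drawn from the DILIps training data, a prediction system for drug-induced liver injury; call rule not given here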;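 on HepSE cholecystitis: Cholecystitis-related hepatic side effect score drawn from the DILIps (drug-induced liver injury prediction) training data set; call rule not given here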;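 on HepSE cholelithiasis: hepatic side effect score for cholelithiasis, drawn from the DILIps training data for predicting drug-induced liver injury; call rule not given here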;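 on HepSE cirrhosis: cirrhosis hepatic side effect score taken from the DILIps (drug-induced liver injury prediction) training set; call rule not given here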;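 on HepSE elevated liver function tests: hepatic side effect score for raised liver function tests, as recorded in the DILIps training set used for predicting drug-induced liver injury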; on HepSE hepatic failure: call rule not given here;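 on HepSE hepatomegaly: hepatic side effect score for hepatomegaly, taken from the training set of the DILIps drug-induced liver injury prediction system; call rule not given here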
Hepatotoxicity [3] = test system: Hepatotoxicity; remark: listed apart in the source;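 on HepSE bilirubinemia: bilirubinemia hepatic side effect score drawn from the DILIps training data, a prediction system for drug-induced liver injury; call rule not given here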;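 on HepSE cholecystitis: Cholecystitis-related hepatic side effect score drawn from the DILIps (drug-induced liver injury prediction) training data set; call rule not given here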;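 on HepSE cholelithiasis: hepatic side effect score for cholelithiasis, drawn from the DILIps training data for predicting drug-induced liver injury; call rule not given here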;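 on HepSE cirrhosis: cirrhosis hepatic side effect score taken from the DILIps (drug-induced liver injury prediction) training set; call rule not given here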;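 on HepSE elevated liver function tests: hepatic side effect score for raised liver function tests, as recorded in the DILIps training set used for predicting drug-induced liver injury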; on HepSE hepatic failure: call rule not given here
Hepatotoxicity [4] = test system: Hepatotoxicity; remark: listed apart in the source;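 on HepSE bilirubinemia: bilirubinemia hepatic side effect score drawn from the DILIps training data, a prediction system for drug-induced liver injury; call rule not given here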;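 on HepSE cholecystitis: Cholecystitis-related hepatic side effect score drawn from the DILIps (drug-induced liver injury prediction) training data set; call rule not given here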;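 on HepSE cholelithiasis: hepatic side effect score for cholelithiasis, drawn from the DILIps training data for predicting drug-induced liver injury; call rule not given here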;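 on HepSE cirrhosis: cirrhosis hepatic side effect score taken from the DILIps (drug-induced liver injury prediction) training set; call rule not given here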;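 on HepSE elevated liver function tests: hepatic side effect score for raised liver function tests, as recorded in the DILIps training set used for predicting drug-induced liver injury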; on HepSE hepatic failure: call rule not given here
Hepatotoxicity [5] = test system: Hepatotoxicity; remark: listed apart in the source; on HepSE hepatic failure: call rule not given here
Hepatotoxicity [6] = test system: Hepatotoxicity; remark: listed apart in the source; on HepSE hepatic failure: call rule not given here
Hepatotoxicity [7] = test system: Hepatotoxicity; remark: listed apart in the source
Hepatotoxicity [8] = test system: Hepatotoxicity; remark: listed apart in the source
Hepatotoxicity [9] = test system: Hepatotoxicity; remark: listed apart in the source
Hepatotoxicity [10] = test system: Hepatotoxicity; remark: listed apart in the source
Hepatotoxicity [11] = test system: Hepatotoxicity; remark: listed apart in the source
Hepatotoxicity [12] = test system: Hepatotoxicity; remark: listed apart in the source
Hepatotoxicity [13] = test system: Hepatotoxicity; remark: listed apart in the source
Hepatotoxicity [14] = test system: Hepatotoxicity; remark: listed apart in the source

Row | Molecule | HepSE_bilirubinemia (Hepatotoxicity [1]) | HepSE_cholecystitis (Hepatotoxicity [2]) | HepSE_cholelithiasis (Hepatotoxicity [3]) | HepSE_cirrhosis (Hepatotoxicity [4]) | HepSE_elevated liver function tests (Hepatotoxicity [5]) | HepSE_hepatic failure (Hepatotoxicity [6]) | HepSE_hepatic necrosis (Hepatotoxicity [7]) | HepSE_hepatitis (Hepatotoxicity [8]) | HepSE_hepatomegaly (Hepatotoxicity [9]) | HepSE_jaundice (Hepatotoxicity [10]) | HepSE_liver disease (Hepatotoxicity [11]) | HepSE_liver fatty (Hepatotoxicity [12]) | HepSE_liver function tests abnormal (Hepatotoxicity [13]) | HepSE_Combined Scores (Hepatotoxicity [14]) | other results
1 | Cc1nccn1CC1CCc2c(c3ccccc3n2C)C1=O (stereo not drawn) [ONDANSETRON] | 0 | 0 | 0 | 0 | 0 | 1 | 0 | 0 | 0 | 0 | 1 | 0 | 0 | 2 | –
2 | GOLD SODIUM THIOMALATE | 0 | 0 | 0 | 0 | 0 | 1 | 0 | 0 | 0 | 1 | 0 | 0 | 0 | 2 | –
3 | CCCC(=O)Nc1ccc(OCC(O)CNC(C)C)c(C(C)=O)c1 (stereo not drawn) [ACEBUTOLOL] | 0 | 0 | 0 | 0 | 0 | 0 | 0 | 0 | 0 | 0 | 0 | 0 | 0 | 0 | –
4 | CN(C)CCCN1c2ccccc2CCc2ccccc21 [IMIPRAMINE] | 0 | 0 | 0 | 0 | 0 | 0 | 0 | 0 | 0 | 1 | 0 | 0 | 0 | 1 | –
5 | CC(C)CN(C[C@@H](O)[C@H](Cc1ccccc1)NC(=O)O[C@H]1CCOC1)S(=O)(=O)c1ccc(N)cc1 | 0 | 0 | 0 | 0 | 0 | 0 | 0 | 0 | 0 | 0 | 0 | 0 | 0 | 0 | –
6 | Cc1cccc(Nc2ccncc2S(=O)(=O)NC(=O)NC(C)C)c1 [TORSEMIDE] | 0 | 0 | 0 | 1 | 0 | 1 | 0 | 0 | 0 | 0 | 0 | 0 | 0 | 2 | –
7 | C#C[C@]1(O)CC[C@H]2[C@@H]3CCC4=Cc5oncc5C[C@]4(C)[C@H]3CC[C@@]21C [DANAZOL] | 0 | 0 | 0 | 0 | 0 | 0 | 0 | 0 | 0 | 1 | 0 | 0 | 0 | 1 | –
8 | CCC[C@@H]1C[C@@H](C(=O)N[C@@H]([C@H]2O[C@H](SC)[C@H](O)[C@@H](O)[C@H]2O)[C@@H](C)O)N(C)C1 [LINCOMYCIN] | 0 | 0 | 0 | 0 | 0 | 0 | 0 | 0 | 0 | 1 | 0 | 0 | 1 | 2 | –
9 | CCC[C@@]1(CCc2ccccc2)CC(O)=C([C@H](CC)c2cccc(NS(=O)(=O)c3ccc(C(F)(F)F)cn3)c2)C(=O)O1 | 1 | 0 | 0 | 0 | 0 | 1 | 0 | 1 | 0 | 1 | 0 | 1 | 1 | 6 | –
10 | MANGAFODIPIR | 0 | 0 | 0 | 0 | 0 | 0 | 0 | 0 | 0 | 0 | 0 | 0 | 0 | 0 | –
11 | NCC[C@H](O)C(=O)N[C@@H]1C[C@H](N)[C@@H](O[C@H]2O[C@H](CN)[C@@H](O)[C@H](O)[C@H]2O)[C@H](O)[C@H]1O[C@H]1O[C@H](CO)[C@@H](O)[C@H](N)[C@H]1O [AMIKACIN] | 0 | 0 | 0 | 0 | 0 | 0 | 0 | 0 | 0 | 0 | 0 | 0 | 0 | 0 | –
12 | c1cnc2cc3c(cc2n1)[C@@H]1CNC[C@H]3C1 [VARENICLINE] | 0 | 0 | 0 | 0 | 0 | 0 | 0 | 0 | 0 | 0 | 0 | 0 | 1 | 1 | –
13 | CC(C)(C)NCC(O)COc1cccc2c1CCC(=O)N2 (stereo not drawn) [CARTEOLOL] | 0 | 0 | 0 | 0 | 0 | 0 | 0 | 0 | 0 | 0 | 0 | 0 | 0 | 0 | –
14 | CC(=O)O[C@H]1C[C@@H]2CC[C@@H]3[C@H](CC[C@@]4(C)[C@H]3C[C@H]([N+]3(C)CCCCC3)[C@@H]4OC(C)=O)[C@@]2(C)C[C@@H]1[N+]1(C)CCCCC1 [PANCURONIUM] | – | – | – | – | – | – | – | – | – | – | – | – | – | – | HepSE_bilirubinemia (Hepatotoxicity [1]; Liver): 0; HepSE_cholecystitis (Hepatotoxicity [2]; Liver): 0; HepSE_cholelithiasis (Hepatotoxicity [3]; Liver): 0; HepSE_cirrhosis (Hepatotoxicity [4]; Liver): 0; HepSE_elevated liver function tests (Hepatotoxicity [5]; Liver): 0; HepSE_hepatic failure (Hepatotoxicity [6]; Liver): 0; HepSE_hepatic necrosis (Hepatotoxicity [7]; Liver): 0; HepSE_hepatitis (Hepatotoxicity [8]; Liver): 0; HepSE_hepatomegaly (Hepatotoxicity [9]; Liver): 0; HepSE_jaundice (Hepatotoxicity [10]; Liver): 0; HepSE_liver disease (Hepatotoxicity [11]; Liver): 0; HepSE_liver fatty (Hepatotoxicity [12]; Liver): 0; HepSE_liver function tests abnormal (Hepatotoxicity [13]; Liver): 0; HepSE_Combined Scores (Hepatotoxicity [14]; Liver): 0
15 | Cc1nc2n(c(=O)c1CCN1CCC(c3noc4cc(F)ccc34)CC1)CCCC2O (stereo not drawn) [PALIPERIDONE] | 0 | 0 | 0 | 0 | 0 | 0 | 0 | 0 | 0 | 0 | 0 | 0 | 0 | 0 | –
16 | CC(C)(C)NC(=O)[C@@H]1CN(Cc2cccnc2)CCN1C[C@@H](O)C[C@@H](Cc1ccccc1)C(=O)N[C@H]1c2ccccc2C[C@H]1O.O | 1 | 0 | 0 | 0 | 0 | 1 | 0 | 1 | 0 | 1 | 0 | 0 | 0 | 4 | –
17 | C=CCC1(C(C)C#CCC)C(=O)N=C(O)N(C)C1=O (stereo not drawn) [METHOHEXITAL] | 0 | 0 | 0 | 0 | 0 | 0 | 0 | 0 | 0 | 0 | 0 | 0 | 1 | 1 | –
